Reference: patent US20160129089A1, “COMBINATION THERAPY” (ANTISENSE THERAPEUTICS LTD, priority 2013, published 2016)
e = 2'-O-(2-methoxyethyl) (MOE); d = 2'-deoxy (DNA)

How the values were obtained:
[1] = system: human growth hormone receptor mRNA; test: Inhibition of human growth hormone receptor mRNA levels by antisense oligonucleotides, quantitative real-time PCR, MCF7 cells; type: cell-based; design: concentration or dose not given beside the values; details: averages from three experiments
Protocol: “Target site” indicates the first (5′-most) nucleotide number on the particular target sequence to which the oligonucleotide binds. “% Inhib” indicates the inhibitory effect on hGHR mRNA levels by quantitative real-time PCR. Data are averages from three experiments in which MCF7 cells were treated with the antisense oligonucleotides.
All oligonucelotides in Table 1 are chimeric oligonucleotides (“gapmers”), 20 nucleotides in length, composed of a central “gap” region consisting of ten 2′-deoxynucleotides, which is flanked on both sides (5′ and 3′ directions) by five-nucleotide “wings”. The wings are composed of 2′-methoxyethyl (2′-MOE) nucleotides. The internucleoside (backbone) linkages are phosphorothioate (P═S) throughout the oligonucleotide. All uracils are 5-methyluracils (^MeU). Typically, the oligonucleotide is synthesized using 2-methoxyethyl modified thymidines not 5-methyluracils. All pyrimidines are C5 methylated (i.e., U, T, C are C5 methylated).

liver GHr RNA = test: Monotherapy and combination mouse study: relative liver GHR RNA; type: in vivo, mice; details: compared to saline control; for reduction of liver GHr RNA: week 3
Description: (§1) The GHr and IGF-I RNA data were statistically analysed using one-way ANOVA followed by Dunnetts test when comparing treated to saline control. The sIGF-I data were statistically analyzed using one-way […] comparisons.

liver IGF-I RNA = test: Monotherapy and combination mouse study: relative liver IGF-I RNA; type: in vivo, mice; details: compared to saline control; for reduction of liver IGF-I RNA: week 3, p=0.05
Description: as §1

serum IGF-I = test: Monotherapy and combination mouse study: serum IGF-I; type: in vivo, mice; details: for reduction of sIGF-I: week 1
Description: as §1

Compound: 272357 (antisense TAGGGTCCATCTTTCAAGAC; sugars from the 5' end e5 d10 e5, all phosphorothioate, methylation of C not given here) [compound 272357]
- % INHIB (inhibitory effect on hGHR mRNA levels) [1]: 62%

Compound: 272358 (antisense TCTCCAGATAGAATCTAAAC; sugars from the 5' end e5 d10 e5, all phosphorothioate, methylation of C not given here) [compound 272358]
- % INHIB (inhibitory effect on hGHR mRNA levels) [1]: 53%

Compound: 272359 (antisense TCCAAATATTCTGGTACTTT; sugars from the 5' end e5 d10 e5, all phosphorothioate, methylation of C not given here) [compound 272359]
- % INHIB (inhibitory effect on hGHR mRNA levels) [1]: 72%

Compound: 272360 (antisense TATTAGTTACCTTGAGGAGA; sugars from the 5' end e5 d10 e5, all phosphorothioate, methylation of C not given here) [compound 272360]
- % INHIB (inhibitory effect on hGHR mRNA levels) [1]: 0%

Compound: 272361 (antisense ATTTTCCTTCCTAGAAAATA; sugars from the 5' end e5 d10 e5, all phosphorothioate, methylation of C not given here) [compound 272361]
- % INHIB (inhibitory effect on hGHR mRNA levels) [1]: 10%

Compound: C[C@@H](O)[C@@H]1NC(=O)[C@H](CCCCN)NC(=O)[C@@H](Cc2c[nH]c3ccccc23)NC(=O)[C@H](Cc2ccccc2)NC(=O)[C@@H](NC(=O)[C@H](N)Cc2ccccc2)CSSC[C@@H](C(=O)N[C@H](CO)[C@@H](C)O)NC1=O [Octreotide, reference compound]
- reduction of liver GHr RNA (liver GHr RNA; octreotide 1.25 mg/kg twice daily, p=0.001): 82.9%
- reduction of liver IGF-I RNA (liver IGF-I RNA; octreotide 1.25 mg/kg twice daily): 47.7%
- reduction of sIGF-I (serum IGF-I; octreotide 1.25 mg/kg twice daily, compared to baseline control levels, p<0.04): 15%
- reduction of sIGF-I (serum IGF-I; octreotide 1.25 mg/kg twice daily, p=0.012): 25.1%
- reduction of serum IGF-I (serum IGF-I; octreotide 1.25 mg/kg twice daily, week 3, compared to saline control, p=0.03): 25.2%

Compound: Somavert: current medicinal treatment for acromegaly, used as monotherapy or with a Somatostatin agonist
- reduction of liver GHr RNA (liver GHr RNA; Somavert 20 mg/kg, every other day, p=0.01): 79.9%
- increase of liver GHr RNA (liver GHr RNA; Somavert lower dose 5 mg/kg, every other day, p=0.05): 23%
- reduction of liver IGF-I RNA (liver IGF-I RNA; Somavert 20 mg/kg, every other day): 43.2%
- effect on liver IGF-I RNA (liver IGF-I RNA; Somavert lower dose 5 mg/kg, every other day): no effect
- increase of sIGF-I levels (serum IGF-I; higher Somavert dose, 1 week, patent suspects an issue with the assay): > 2 fold
